Reference: patent US6610684B2, “Fused azepinone cyclin dependent kinase inhibitors” (The United States of America as represented by the …, priority 1998, dated 2003)
Where two headings read alike, the source gives them in different places.

Assays:
[1] = Plasma pharmacokinetics after single i.v. dose; type: in vivo, Sprague Dawley rats; details: Sprague-Dawley, iv, rat

Row | SMILES | melting point | also measured
1 | O=C1Cc2c([nH]c3ccc([N+](=O)[O-])cc23)-c2cc(Br)ccc2N1 [2-Br,9-nitro, 2-bromo-9-nitro-7,12-dihydro-indolo[3,2-d][1]benzazepin-6(5H)-one] | > 330 °C | –
2 | COc1ccc2[nH]c3c(c2c1)CC(=O)Nc1ccccc1-3 [Example 9-OCH3, 7,12-dihydro-9-methoxy-indolo[3,2-d][1]benzazepin-6(5H)-one] | > 330 °C | –
3 | COOC/C=C/c1ccc2c(c1)-c1[nH]c3ccc(C(F)(F)F)cc3c1CC(=O)N2 [3-(6-oxo-9-trifluoromethyl-5,6,7,12-tetrahydro-indolo[3,2d][1]benzazepin-2-yl)-acrylic acid methyl ester] | > 330 °C | –
4 | S=C1Cc2c([nH]c3ccc(Br)cc23)-c2ccccc2N1 [6 = S, 9-Br, 9-bromo-7,12-dihydro-indolo[3,2-d][1]benzazepine-6(5H) -thione] | > 330 °C | –
5 | O=C1Cc2c([nH]c3ccc([N+](=O)[O-])cc23)-c2ccccc2N1 [Example 9-nitro, 9-nitro-7,12-dihydro-indolo[3,2-d][1]benzazepin-6(5H)-one] | – | clearance ([1]; single i.v. 5 mg/kg in DMSO): 16 mL/min/kg; half-life ([1]; single i.v. 5 mg/kg in DMSO, read-out: half life in the plasma): 46 min; clearance ([1]; single i.v. 10 mg/kg in DMSO): 14 mL/min/kg; half-life ([1]; single i.v. 10 mg/kg in DMSO, read-out: half life in plasma): 66 min
6 | COc1cc2c(cc1OC)-c1[nH]c3ccc(C#N)cc3c1CC(=O)N2 [2,3-dimethoxy, 9-cyano, 2,3-dimethoxy-6-oxo-5,6,7,12-tetrahydro-indolo[3,2-d][1]benzazepine-9-carbonitrile] | > 330 °C | –
7 | COc1cc2c(cc1OC)-c1[nH]c3ccc([N+](=O)[O-])cc3c1CC(=O)N2 [2,3-dimethoxy, 9-nitro, 2,3-dimethoxy-9-nitro-7,12-dihydro-indolo[3,2-d][1]benzazepin-6(5H)-one] | > 330 °C | –
8 | O=C1Cc2c([nH]c3ccc(Br)cc23)-c2cc(C[C@@H]3CO3)ccc2N1 [Example 34] | 308 to 310 °C (dec.) | –
9 | O=C1Cc2c([nH]c3ccc(C(F)(F)F)cc23)-c2cc(C#CC3(O)CCCCC3)ccc2N1 [2-[2-(1-hydroxycyclohexyl)-ethinyl]-9-trifluoromethyl-7,12-dihydro-indolo[3,2-d][1]-benzazepin-6(5H)-one] | > 330 °C | –
10 | O=C1Cc2c([nH]c3ccccc23)-c2cc(Br)ccc2N1 [Example 2-Br, 2-bromo-7,12-dihydro-indolo[3,2-d][1]benzazepin-6(5H)-one] | > 330 °C | –
